For data set [1], the system named is IL-15 induced STAT5 phosphorylation in Human Whole Blood (total lymphocytes). Nature of the data set: HWB IL-15 Induced STAT5 Phosphorylation Assay. The class given is cell-based. As to conditions: IL-15 stimulated, read-out: HWB-IL15-pSTAT5 IC50.
Data set [2] concerns IL-15 induced P-STAT5 in human PBMC (total lymphocytes). The data set can be described thus: PBMC IL-15 Induced P-STAT5. The class given is cell-based. As to conditions: IL-15 stimulated, read-out: PBMC IL15-pSTAT5 IC50. An outline of the steps:
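Thawed human PBMC in RPMI, preincubated 30 min at 37 °C, then IL-15 stimulated. Cells methanol-permeabilized (90%, on ice 20 min) and stained for phospho-STAT5. Read by flow cytometry, gated on total lymphocytes.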

The nature of data set [3]: Stability of JAK3 covalent inhibitors in human whole blood. The class given is in vitro ADME. As to conditions: 37° C.; for half-life at 1 μM: both sexes, read-out: Human blood stability t1/2; for Human blood stability t1/2: 1 μM.
Description: Human blood was collected from one male and one female healthy subjects at the Occupational Health & Wellness Center at Pfizer, Groton, Conn. and pooled for each study. Both rat and human blood was collected freshly into K2-EDTA tubes and kept on ice. An aliquot of the blood was transferred to microtubes and pre-warmed for 10 min at 37° C. using a heat block. […] An aliquot of the incubation mixture was removed at designated time points during the course of the incubation, mixed with an aliquot of acetonitrile containing an internal standard, vortexed and centrifuged. The resulting supernatants were removed and subjected to LC-MS/MS analyses to determine parent compound concentrations. Peak area ratios of the parent compound vs the internal standard were used to determine the % of parent compound remaining vs incubation time.
For a further data set, the target named is JAK3 enzyme (Homo sapiens (Human), UniProt P52333). The data set can be described thus: JAK Caliper Enzyme Assay at 4 μM or 1 mM ATP. The class given is biochemical. The protocol: JAK Caliper Enzyme Assay at 4 μM or 1 mM ATP
Test article was solubilized in dimethyl sulfoxide (DMSO) to a stock concentration of 30 mM. An 11-point half log dilution series was created in DMSO with a top concentration of 600 μM. […] The compound plates were diluted 1 to 60 resulting in a top final assay compound concentration of 10 μM and a 2% DMSO concentration.
Test article and assay controls were added to a 384-well plate. Reaction mixtures contained 20 mM HEPES, pH 7.4, 10 mM magnesium chloride, 0.01% bovine serum albumin (BSA), 0.0005% Tween 20, 4 μM or 1 mM ATP and 1 μM peptide substrate. […] The assays were initiated by the addition 1 nM JAK3 enzyme and were incubated at room temperature 75 minutes for JAK3. Enzyme concentrations and incubation times were optimized for each new enzyme preps and were modified slightly over time to ensure 20%-30% phosphorylation. The assays were stopped with a final concentration of 10 mM EDTA, 0.1% Coating Reagent and 100 mM HEPES, pH=7.4. The assay plates were placed on a Caliper Life Science Lab Chip 3000 (LC3000) instrument, and each well was sampled using appropriate separation conditions to measure the unphosphorylated and phosphorylated peptide.

[4] abbreviates: read-out: JAK3 (1 mM ATP) IC50, 1 mM ATP.

Like-named read-outs stand apart in the source and are kept apart here.

Chain of JAK3 enzyme (P52333 whole entry, species assumed): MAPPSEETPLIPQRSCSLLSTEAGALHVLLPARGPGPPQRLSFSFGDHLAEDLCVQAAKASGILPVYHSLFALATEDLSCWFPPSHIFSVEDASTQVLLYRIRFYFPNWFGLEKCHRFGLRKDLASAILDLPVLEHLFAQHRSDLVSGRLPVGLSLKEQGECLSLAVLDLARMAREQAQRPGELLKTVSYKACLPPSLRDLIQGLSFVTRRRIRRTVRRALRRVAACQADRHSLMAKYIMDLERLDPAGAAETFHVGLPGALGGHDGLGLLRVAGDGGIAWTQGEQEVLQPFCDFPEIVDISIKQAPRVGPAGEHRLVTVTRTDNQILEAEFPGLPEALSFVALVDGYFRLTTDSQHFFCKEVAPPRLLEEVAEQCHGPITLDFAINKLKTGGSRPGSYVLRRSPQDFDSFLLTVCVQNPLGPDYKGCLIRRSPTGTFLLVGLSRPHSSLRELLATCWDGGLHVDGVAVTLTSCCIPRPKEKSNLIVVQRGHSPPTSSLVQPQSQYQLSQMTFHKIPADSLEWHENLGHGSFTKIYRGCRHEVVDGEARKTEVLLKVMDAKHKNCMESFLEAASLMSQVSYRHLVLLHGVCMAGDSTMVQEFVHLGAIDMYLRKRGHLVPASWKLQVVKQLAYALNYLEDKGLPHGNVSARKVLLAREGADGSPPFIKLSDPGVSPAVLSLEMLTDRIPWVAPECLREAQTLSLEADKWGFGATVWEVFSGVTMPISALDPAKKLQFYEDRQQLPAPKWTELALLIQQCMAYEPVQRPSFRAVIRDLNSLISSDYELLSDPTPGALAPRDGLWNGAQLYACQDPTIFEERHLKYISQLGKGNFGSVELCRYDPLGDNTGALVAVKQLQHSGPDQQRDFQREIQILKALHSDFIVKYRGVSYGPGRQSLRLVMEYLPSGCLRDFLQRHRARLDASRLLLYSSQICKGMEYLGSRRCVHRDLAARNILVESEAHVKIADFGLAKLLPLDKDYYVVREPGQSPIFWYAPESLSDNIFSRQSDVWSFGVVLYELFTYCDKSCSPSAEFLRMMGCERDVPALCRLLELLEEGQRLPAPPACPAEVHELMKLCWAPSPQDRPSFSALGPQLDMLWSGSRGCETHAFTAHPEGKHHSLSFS

On to `C=CC(=O)N1C[C@@H](Nc2ncnc3[nH]ccc23)[C@@H]2CC[C@H]1C2` (racemic) [Example 116, Rac-1-((1R,4R,5S)-4-(7H-pyrrolo[2,3-d]pyrimidin-4-ylamino)-2-azabicyclo[3.2.1]octan-2-yl)prop-2-en-1-one], for which the IC50 (in general, the midpoint of a concentration-inhibition curve) in data set [1] (Lymphocyte) was more than 10000 nM; in data set [2] (Homo sapiens, PBMC), more than 10000 nM. Also, the half-life at 1 μM in data set [3] stood at 4.68 h.
Consider `C=CC(=O)N1CC[C@H](Nc2cnc3[nH]cc(C(=O)NC(C)(C)C)c3n2)C[C@@H]1C` (racemic) [Example 340], for which the half-life at 1 μM in data set [3] was more than 6 h.
As for `C=CC(=O)N1CC[C@@H](Nc2cnc3[nH]cc(C(=O)NC(C)(C)C)c3n2)C[C@H]1C` (single isomer, unassigned) [Example 342], the half-life at 1 μM in data set [3] was more than 6 h.
The same measure, in the same setting: as for `C=CC(=O)N1CCC[C@@H](Nc2ncnc3[nH]cc(-c4ccc(C(=O)NC5CC5)c(Cl)c4)c23)C1` [Example 31, 4-(4-{[(3R)-1-acryloylpiperidin-3-yl]amino}-7H-pyrrolo[2,3-d]pyrimidin-5-yl)-2-chloro-N-cyclopropylbenzamide], the figure is more than 6 h.
Regarding `C=CC(=O)N1C[C@@H](O)C[C@@H](Nc2ncnc3[nH]cc(Cl)c23)C1` [Example 162, 1-{(3R,5S)-3-[(5-Chloro-7H-pyrrolo[2,3-d]pyrimidin-4-yl)amino]-5-hydroxypiperidin-1-yl}prop-2-en-1-one], the IC50 amounted to 1000 nM in data set [1] (Lymphocyte) and 361 nM in data set [2]. Moreover, the half-life at 1 μM in data set [3] is more than 6 h.
In the case of `C=CC(=O)N1CC2CCN(c3cnc4[nH]cc(C(=O)NC(C)C)c4n3)C2C1` (centres unmarked) [Example 178, 2-(5-acryloylhexahydropyrrolo[3,4-b]pyrrol-1(2H)-yl)-N-(propan-2-yl)-5H-pyrrolo[2,3-b]pyrazine-7-carboxamide], the IC50 was determined as 2560 nM in data set [1] and 208 nM in data set [2]. In data set [3], the “Human blood stability t1/2” value turned out to be 2.38 h.
Consider `C=CC(=O)N1CCC(Oc2cnc3[nH]cc(-c4cnn(C)c4)c3n2)CC1` [Example 218, 1-(4-{[7-(1-methyl-1H-pyrazol-4-yl)-5H-pyrrolo[2,3-b]pyrazin-2-yl]oxy}piperidin-1-yl)prop-2-en-1-one], for which the IC50 in data set [1] was 6190 nM; in data set [2], 345 nM. Further, the “Human blood stability t1/2” value in data set [3] was more than 6 h.
In the case of `C=CC(=O)N1CCC(Nc2cnc3[nH]cc(C(=O)N[C@@H](C)C(=O)NCCC#N)c3n2)CC1` [Example 264, 2-[(1-acryloylpiperidin-4-yl)amino]-N-{(2S)-1-[(2-cyanoethyl)aminop]-oxopropan-2-yl}-5H-pyrrolo[2,3-b]pyrazine-7-carboxamide], the IC50 on JAK3 enzyme (read-out: JAK3 (4 μM ATP) IC50, 4 μM ATP) is 2.6 nM; at JAK3 enzyme (setting [4]) it was 226 nM; in data set [2], 4480 nM.
Turning to `C=CC(=O)N1CCN(c2cnc3[nH]cc(C(=O)NC(C)C)c3n2)C[C@H]1CC` [Example 311, 2-[(3R)-4-acryloyl-3-ethylpiperazin-1-yl]-N-(propan-2-yl)-5H-pyrrolo[2,3-b]pyrazine-7-carboxamide], the IC50 came out at 220 nM on JAK3 enzyme (setting [4]) and 696 nM in data set [2].
On to `C=CC(=O)N1CC[C@H](Nc2cnc3[nH]cc(C(=O)NC(C)(C)C)c3n2)C[C@@H]1C` [Example 341, 2-(((2S,4S)-1-Acryloyl-2-methylpiperidin-4-yl)amino)-N-(tert-butyl)-5H-pyrrolo[2,3-b]pyrazine-7-carboxamide], for which the “Human blood stability t1/2” value in data set [3] was more than 6 h.
Turning to `C#CCNC(=O)c1c[nH]c2ncc(NC3CCN(C(=O)C=C)CC3)nc12` [Example 343, 2-((1-Acryloylpiperidin-4-yl)amino)-N-(prop-2-yn-1-yl)-5H-pyrrolo[2,3-b]pyrazine-7-carboxamide], the IC50 was 105 nM in data set [1] (Lymphocyte) and 36.8 nM in data set [2].

Values taken from patent US11111242B2, “Pyrrolo[2,3-d]pyrimidinyl, pyrrolo[2,3-b]pyrazinyl and pyrrolo[2,3-d]pyridinyl acrylamides” (Pfizer Inc., priority 2013, dated 2021).
